Experimental data as given in patent US20230416232A1, “PYRIMIDINE COMPOUNDS, COMPOSITIONS, AND MEDICINAL APPLICATIONS THEREOF” (Blueprint Medicines Corporation, priority 2020, published 2023).
Structures can show the parent of a compound that is named as a salt.

Experiments:
Format in all cases: cell-based
[1] = biological target: EGFR(D770_N771insSVD) expressing Ba/F3 stable cell line (Homo sapiens, UniProt P00533, DUP768-770, cells depend on it); assay: Cellular proliferation (Alamar Blue) assay, EGFR(D770_N771insSVD) Ba/F3; conditions: 72 hr, read-out: D770 IC50
In short: (§1)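 Compound treatment lasted 72 h at 37 °C across a final 10-0.0005 μM range in 3-fold steps; cell growth was measured with Alamar Blue (3 h). Ba/F3 seeded at 15,000 and A431 at 5000 cells/well.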

[2] = biological target: EGFR (A767_dupASV) expressing Ba/F3 stable cell line (Homo sapiens, UniProt P00533, DUP767-769, cells depend on it); assay: Cellular proliferation (Alamar Blue) assay, EGFR (A767_dupASV) Ba/F3; conditions: 72 hr, read-out: A767 IC50
In short: as §1

A431 cells = assay: Cellular proliferation (Alamar Blue) assay, A431 cells; conditions: Homo sapiens, A-431, 72 h, A431 cells; 72 hr; Alamar Blue; read-out: A431 IC50
In short: as §1

[3] = biological target: EGFR (H773insNPH) expressing Ba/F3 stable cell line (Homo sapiens, UniProt P00533, DUP771-773, cells depend on it); assay: Cellular proliferation (Alamar Blue) assay, EGFR (H773insNPH) Ba/F3; conditions: 72 hr, read-out: NPH IC50
Description: Cell line details: • 1. EGFR(D770_N771insSVD) expressing Ba/F3 stable cell line • 2. EGFR (A767_dupASV) expressing Ba/F3 stable cell line • 3. A431 cells • 4. EGFR (H773insNPH) expressing Ba/F3 stable cell line • 5. HER2 (A775_G776insYVMA) expressing Ba/F3 stable cell line
• 1. Seed cells at 5000 for A431 and 15,000 cells for Ba/F3 in 100 μL/well in complete media (for A431: DMEM with 10% FBS and for Ba/F3 cells: RPMI with 10% FBS) in 96-well tissue culture plate. Leave outer wells without cells for background measurements. Incubate at 37 degree Celsius in 5% CO2 humidified incubator for 16-18 hours. • 2. Add 0.025 ml of 5X concentration compound dilution or DMSO control. Final compound concentration range is 10-0.0005 μM prepared in 3-fold serial dilutions. Incubate for 72 hr at 37 degree Celsius in 5% CO2 humidified incubator. • 3. Add 0.0125 ml Alamar Blue™ reagent to each well with multi-channel pipette and tap gently on each side of the plate to mix. Incubate for 3 hours at 37 degree Celsius in 5% CO2 humidified incubator. • 4. […] Data analysis was performed using XLfit 5.5.0.5.

[4] = biological target: HER2 (A775_G776insYVMA) expressing Ba/F3 stable cell line (Homo sapiens, UniProt P04626, DUP772-775, cells depend on it); assay: Cellular proliferation (Alamar Blue) assay, HER2 (A775_G776insYVMA) Ba/F3; conditions: HER2 (A775_G776insYVMA) Ba/F3 cells; 72 hr; Alamar Blue; read-out: YVMA IC50
In short: as §1

EGFR (A767_dupASV) expressing Ba/F3 stable cell line, sequence (P00533 with tags, fused parts or gaps DUP767-769): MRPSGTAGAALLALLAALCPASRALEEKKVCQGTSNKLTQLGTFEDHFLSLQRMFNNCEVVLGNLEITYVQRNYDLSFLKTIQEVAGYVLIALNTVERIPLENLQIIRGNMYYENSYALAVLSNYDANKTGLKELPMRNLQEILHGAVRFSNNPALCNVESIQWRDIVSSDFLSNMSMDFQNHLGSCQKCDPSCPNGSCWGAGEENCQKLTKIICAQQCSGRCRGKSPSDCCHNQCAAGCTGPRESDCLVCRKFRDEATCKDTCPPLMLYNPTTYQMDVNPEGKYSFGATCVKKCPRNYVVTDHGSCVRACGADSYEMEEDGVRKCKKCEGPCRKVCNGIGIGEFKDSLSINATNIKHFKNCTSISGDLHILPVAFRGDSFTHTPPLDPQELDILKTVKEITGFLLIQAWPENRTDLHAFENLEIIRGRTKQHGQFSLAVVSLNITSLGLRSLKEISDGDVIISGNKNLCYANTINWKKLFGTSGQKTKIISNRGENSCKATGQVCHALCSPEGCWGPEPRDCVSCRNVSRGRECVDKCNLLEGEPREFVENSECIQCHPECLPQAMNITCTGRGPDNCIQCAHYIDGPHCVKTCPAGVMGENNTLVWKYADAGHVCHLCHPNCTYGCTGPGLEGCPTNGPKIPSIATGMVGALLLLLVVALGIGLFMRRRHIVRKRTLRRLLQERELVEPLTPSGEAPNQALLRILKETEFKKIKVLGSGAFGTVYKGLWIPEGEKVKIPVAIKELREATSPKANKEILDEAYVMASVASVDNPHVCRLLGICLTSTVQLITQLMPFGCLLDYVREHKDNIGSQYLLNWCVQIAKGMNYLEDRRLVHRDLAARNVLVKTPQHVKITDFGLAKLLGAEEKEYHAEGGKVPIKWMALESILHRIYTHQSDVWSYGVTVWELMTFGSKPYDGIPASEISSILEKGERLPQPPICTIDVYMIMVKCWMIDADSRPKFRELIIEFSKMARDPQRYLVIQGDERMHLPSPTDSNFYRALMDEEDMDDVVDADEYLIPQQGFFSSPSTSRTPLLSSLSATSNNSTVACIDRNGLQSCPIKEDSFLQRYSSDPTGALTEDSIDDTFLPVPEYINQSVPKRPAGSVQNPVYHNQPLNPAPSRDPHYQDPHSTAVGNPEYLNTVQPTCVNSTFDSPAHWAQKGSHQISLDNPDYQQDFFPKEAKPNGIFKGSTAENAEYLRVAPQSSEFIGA
EGFR(D770_N771insSVD) expressing Ba/F3 stable cell line, sequence (P00533 with tags, fused parts or gaps DUP768-770): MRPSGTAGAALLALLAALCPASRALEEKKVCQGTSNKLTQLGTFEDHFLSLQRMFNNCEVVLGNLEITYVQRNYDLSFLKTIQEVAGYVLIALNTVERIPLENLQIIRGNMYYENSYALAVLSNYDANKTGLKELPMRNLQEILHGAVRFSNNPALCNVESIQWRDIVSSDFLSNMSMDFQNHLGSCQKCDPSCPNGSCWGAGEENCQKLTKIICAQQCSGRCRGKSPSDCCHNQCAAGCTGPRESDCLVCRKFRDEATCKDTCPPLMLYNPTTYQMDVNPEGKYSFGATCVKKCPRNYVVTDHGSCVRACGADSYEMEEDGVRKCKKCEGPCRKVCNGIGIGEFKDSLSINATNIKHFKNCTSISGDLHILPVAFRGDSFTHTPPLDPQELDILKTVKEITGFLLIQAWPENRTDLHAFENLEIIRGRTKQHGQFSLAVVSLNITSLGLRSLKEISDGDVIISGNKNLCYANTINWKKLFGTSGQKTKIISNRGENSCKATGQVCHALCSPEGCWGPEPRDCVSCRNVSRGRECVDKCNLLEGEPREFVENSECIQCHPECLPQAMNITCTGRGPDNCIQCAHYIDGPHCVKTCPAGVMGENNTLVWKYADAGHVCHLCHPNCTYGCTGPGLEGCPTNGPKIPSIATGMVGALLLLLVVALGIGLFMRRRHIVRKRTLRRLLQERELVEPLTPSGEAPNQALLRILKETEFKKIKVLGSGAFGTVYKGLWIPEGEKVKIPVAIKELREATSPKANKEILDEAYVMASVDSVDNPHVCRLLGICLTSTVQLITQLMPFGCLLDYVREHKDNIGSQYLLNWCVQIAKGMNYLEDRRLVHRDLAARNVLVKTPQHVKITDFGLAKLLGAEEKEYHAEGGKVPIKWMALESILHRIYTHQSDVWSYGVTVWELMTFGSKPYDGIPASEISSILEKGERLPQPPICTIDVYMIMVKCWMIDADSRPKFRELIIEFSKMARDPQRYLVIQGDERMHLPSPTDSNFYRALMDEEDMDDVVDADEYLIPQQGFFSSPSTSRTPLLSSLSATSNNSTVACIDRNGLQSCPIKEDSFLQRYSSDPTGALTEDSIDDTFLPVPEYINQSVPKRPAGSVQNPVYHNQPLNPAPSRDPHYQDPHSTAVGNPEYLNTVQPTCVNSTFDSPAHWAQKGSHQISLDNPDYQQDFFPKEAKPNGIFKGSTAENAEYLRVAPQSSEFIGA
EGFR (H773insNPH) expressing Ba/F3 stable cell line, sequence (P00533 with tags, fused parts or gaps DUP771-773): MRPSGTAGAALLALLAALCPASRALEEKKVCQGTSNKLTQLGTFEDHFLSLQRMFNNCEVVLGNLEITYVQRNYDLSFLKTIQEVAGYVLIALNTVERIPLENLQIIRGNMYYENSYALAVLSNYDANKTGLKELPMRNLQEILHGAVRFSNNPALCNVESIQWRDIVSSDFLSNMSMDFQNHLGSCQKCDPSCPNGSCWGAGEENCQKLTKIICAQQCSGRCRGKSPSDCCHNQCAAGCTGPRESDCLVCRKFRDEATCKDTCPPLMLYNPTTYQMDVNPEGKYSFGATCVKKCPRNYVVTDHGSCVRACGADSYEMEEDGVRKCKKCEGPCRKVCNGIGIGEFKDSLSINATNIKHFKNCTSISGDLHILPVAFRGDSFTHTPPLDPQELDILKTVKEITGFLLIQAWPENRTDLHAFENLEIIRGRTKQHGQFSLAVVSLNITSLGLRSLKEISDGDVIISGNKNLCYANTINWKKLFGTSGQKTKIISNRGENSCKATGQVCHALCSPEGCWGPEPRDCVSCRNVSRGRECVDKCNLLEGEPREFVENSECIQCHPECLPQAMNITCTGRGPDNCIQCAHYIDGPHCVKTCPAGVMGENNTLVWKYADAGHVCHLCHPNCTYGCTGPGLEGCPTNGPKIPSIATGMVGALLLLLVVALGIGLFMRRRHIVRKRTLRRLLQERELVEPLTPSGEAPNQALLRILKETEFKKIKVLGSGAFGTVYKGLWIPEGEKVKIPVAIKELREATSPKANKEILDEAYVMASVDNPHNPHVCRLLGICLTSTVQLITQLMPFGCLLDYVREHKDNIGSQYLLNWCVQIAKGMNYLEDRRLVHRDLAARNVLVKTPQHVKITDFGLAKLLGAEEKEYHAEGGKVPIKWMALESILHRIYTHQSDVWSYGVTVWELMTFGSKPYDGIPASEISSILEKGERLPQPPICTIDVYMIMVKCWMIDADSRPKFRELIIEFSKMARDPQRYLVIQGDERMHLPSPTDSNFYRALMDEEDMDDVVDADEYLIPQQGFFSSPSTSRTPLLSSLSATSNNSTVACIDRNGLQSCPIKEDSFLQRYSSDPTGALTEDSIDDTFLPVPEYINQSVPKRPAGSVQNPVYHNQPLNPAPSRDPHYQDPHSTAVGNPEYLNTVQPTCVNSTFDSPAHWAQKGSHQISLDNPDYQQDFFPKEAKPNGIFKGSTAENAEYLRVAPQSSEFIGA
HER2 (A775_G776insYVMA) expressing Ba/F3 stable cell line, sequence (P04626 with tags, fused parts or gaps DUP772-775): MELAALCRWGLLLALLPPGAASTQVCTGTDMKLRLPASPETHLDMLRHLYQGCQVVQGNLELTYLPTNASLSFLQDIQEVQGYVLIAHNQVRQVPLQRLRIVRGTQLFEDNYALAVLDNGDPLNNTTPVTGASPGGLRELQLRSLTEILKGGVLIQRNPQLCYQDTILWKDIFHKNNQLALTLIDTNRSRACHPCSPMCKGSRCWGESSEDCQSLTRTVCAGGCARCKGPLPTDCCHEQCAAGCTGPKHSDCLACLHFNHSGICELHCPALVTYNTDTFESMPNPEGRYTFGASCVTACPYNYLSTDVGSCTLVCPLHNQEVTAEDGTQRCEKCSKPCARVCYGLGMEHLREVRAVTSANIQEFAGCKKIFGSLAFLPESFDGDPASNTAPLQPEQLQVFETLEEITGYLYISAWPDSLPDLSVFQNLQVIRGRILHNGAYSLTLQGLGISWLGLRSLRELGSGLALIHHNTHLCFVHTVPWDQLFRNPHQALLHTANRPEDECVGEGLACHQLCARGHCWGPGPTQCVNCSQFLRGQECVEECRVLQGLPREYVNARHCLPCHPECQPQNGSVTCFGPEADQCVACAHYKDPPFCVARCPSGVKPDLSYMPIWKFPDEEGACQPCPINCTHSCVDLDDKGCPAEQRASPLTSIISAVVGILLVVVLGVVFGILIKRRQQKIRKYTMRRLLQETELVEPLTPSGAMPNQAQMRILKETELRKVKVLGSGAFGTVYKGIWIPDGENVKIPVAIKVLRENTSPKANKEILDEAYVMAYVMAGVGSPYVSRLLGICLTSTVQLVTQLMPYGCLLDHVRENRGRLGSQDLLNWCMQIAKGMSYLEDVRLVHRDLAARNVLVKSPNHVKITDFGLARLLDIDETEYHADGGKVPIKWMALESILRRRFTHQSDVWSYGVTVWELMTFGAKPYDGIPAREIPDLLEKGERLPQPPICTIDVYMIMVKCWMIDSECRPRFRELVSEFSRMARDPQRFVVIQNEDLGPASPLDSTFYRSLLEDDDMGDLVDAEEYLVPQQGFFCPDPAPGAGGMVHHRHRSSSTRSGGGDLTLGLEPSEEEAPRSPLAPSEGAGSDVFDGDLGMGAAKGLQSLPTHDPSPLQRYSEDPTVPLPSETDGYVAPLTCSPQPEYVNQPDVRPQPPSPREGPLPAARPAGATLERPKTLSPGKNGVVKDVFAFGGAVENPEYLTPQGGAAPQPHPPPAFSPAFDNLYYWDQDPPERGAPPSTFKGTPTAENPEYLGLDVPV

GI50 [1] [nM]	GI50 [2] [nM]	IC50 (A431 cells) [nM]	GI50 [3] [nM]	GI50 [4] [nM]	Compound
113	166	251	56	220	C=CC(=O)Nc1ccc(F)c(Nc2nc(Nc3cnn(C)c3)ncc2-c2ccc(F)c(Br)c2)c1 [Compound 18, N-(3-((5-(3-bromo-4-fluorophenyl)-2-((1-methyl-1H-pyrazol-4-yl)amino)pyrimidin-4-yl)amino)-4-fluorophenyl)acrylamide trifluoroacetate]
170	150	1180	462	952	C=CC(=O)Nc1ccc(F)c(Nc2nc(Nc3cnn(C)c3)ncc2-c2ccc(CN(C)C)c(F)c2)c1 [Compound 60, N-(3-((5-(4-((dimethylamino)methyl)-3-fluorophenyl)-2-((1-methyl-1H-pyrazol-4-yl)amino)pyrimidin-4-yl)amino)-4-fluorophenyl)acrylamide]
10	9	460	24	43	C=CC(=O)Nc1ccc(F)c(Nc2nc(Nc3cnn(C)c3)ncc2-c2ccc(OC(F)F)c(F)c2)c1 [Compound 16, N-(3-((5-(4-(difluoromethoxy)-3-fluorophenyl)-2-((1-methyl-1H-pyrazol-4-yl)amino)pyrimidin-4-yl)amino)-4-fluorophenyl)acrylamide]
194	262	1950	124	1070	C=CC(=O)Nc1ccc(F)c(Nc2nc(Nc3cnn(C)c3)ncc2-c2cc(F)ccc2Cl)c1 [Compound 11, N-(3-((5-(2-chloro-5-fluorophenyl)-2-((1-methyl-1H-pyrazol-4-yl)amino)pyrimidin-4-yl)amino)-4-fluorophenyl)acrylamide]
38	56	110	79	–	C=CC(=O)Nc1ccc(F)c(Nc2nc(Nc3cnn(CCO)c3)ncc2-c2ccc(Cl)c(Cl)c2)c1 [Compound 51, N-(3-((5-(3,4-dichlorophenyl)-2-((1-(2-hydroxyethyl)-1H-pyrazol-4-yl)amino)pyrimidin-4-yl)amino)-4-fluorophenyl)acrylamide]
66	87	280	57	118	C=CC(=O)Nc1ccc(F)c(Nc2nc(Nc3cnn(C)c3)ncc2-c2ccc(Br)c(Cl)c2)c1 [Compound 88, N-(3-((5-(4-bromo-3-chlorophenyl)-2-((1-methyl-1H-pyrazol-4-yl)amino)pyrimidin-4-yl)amino)-4-fluorophenyl)acrylamide]
85	184	–	186	260	C=CC(=O)Nc1ccc(F)c(Nc2nc(Nc3cnn(C)c3)ncc2-c2ccc(C(F)(F)F)c(Cl)c2)c1 [Compound 54, N-(3-((5-(3-chloro-4-(trifluoromethyl)phenyl)-2-((1-methyl-1H-pyrazol-4-yl)amino)pyrimidin-4-yl)amino)-4-fluorophenyl)acrylamide]
122	101	522	92	–	C=CC(=O)Nc1ccc(F)c(Nc2nc(Nc3cnn(C)c3)ncc2-c2ccc(N3CCCOCC3)c(F)c2)c1 [Compound 84, N-(4-fluoro-3-((5-(3-fluoro-4-(1,4-oxazepan-4-yl)phenyl)-2-((1-methyl-1H-pyrazol-4-yl)amino)pyrimidin-4-yl)amino)phenyl)acrylamide]
–	–	68	31	36	C=CC(=O)Nc1ccc(F)c(Nc2nc(Nc3cnn(C)c3)ncc2-c2cnc(Cl)c(C)c2)c1 [Compound 48, N-(3-((5-(6-chloro-5-methylpyridin-3-yl)-2-((1-methyl-1H-pyrazol-4-yl)amino)pyrimidin-4-yl)amino)-4-fluorophenyl)acrylamide]
2240	800	2230	3640	–	C=CC(=O)Nc1ccc(F)c(Nc2nc(Nc3cnn(C)c3)ncc2-c2ccc(C3=CCN(C)CC3)c(F)c2)c1 [Compound 55, N-(4-fluoro-3-((5-(3-fluoro-4-(1-methyl-1,2,3,6-tetrahydropyridin-4-yl)phenyl)-2-((1-methyl-1H-pyrazol-4-yl)amino)pyrimidin-4-yl)amino)phenyl)acrylamide]
–	–	18	116	83	C=CC(=O)Nc1ccc(F)c(Nc2nc(Nc3cnn(C)c3)ncc2-c2ccc(Br)c(F)c2)c1 [Compound 87, N-(3-{[5-(4-bromo-3-fluorophenyl)-2-[(1-methyl-1H-pyrazol-4-yl)amino]pyrimidin-4-yl]amino}-4-fluorophenyl) prop-2-enamide]
–	39	303	50	84	C=CC(=O)Nc1ccc(F)c(Nc2nc(Nc3cnn(C)c3)ncc2-c2cc(F)cc(Cl)c2)c1 [Compound 34, N-(3-((5-(3-chloro-5-fluorophenyl)-2-((1-methyl-1H-pyrazol-4-yl)amino)pyrimidin-4-yl)amino)-4-fluorophenyl)acrylamide]

Continued, compound first:

Compound	GI50 [1] [nM]	GI50 [2] [nM]	IC50 (A431 cells) [nM]	GI50 [3] [nM]	GI50 [4] [nM]
C=CC(=O)Nc1ccc(F)c(Nc2nc(Nc3cnn(C)c3)ncc2-c2cnc(Cl)c(F)c2)c1 [Compound 45, N-(3-((5-(6-chloro-5-fluoropyridin-3-yl)-2-((1-methyl-1H-pyrazol-4-yl)amino)pyrimidin-4-yl)amino)-4-fluorophenyl)acrylamide]	7	10	35	25	16
C=CC(=O)Nc1ccc(F)c(Nc2nc(Nc3cnn(C)c3)ncc2-c2ccc(Cl)c(F)c2)c1 [Compound 33, N-(3-((5-(4-chloro-3-fluorophenyl)-2-((1-methyl-1H-pyrazol-4-yl)amino)pyrimidin-4-yl)amino)-4-fluorophenyl)acrylamide]	20	21	35	52	73
C=CC(=O)Nc1ccc(F)c(Oc2nc(Nc3cnn(C)c3)ncc2-c2ccc(Cl)c(F)c2)c1 [Compound 98, N-(3-{[5-(4-chloro-3-fluorophenyl)-2-[(1-methyl-1H-pyrazol-4-yl)amino]pyrimidin-4-yl]oxy}-4-fluorophenyl) prop-2-enamide]	36	104	990	153	252
C=CC(=O)Nc1ccc(F)c(Nc2nc(Nc3cnn(C4COC4)c3)ncc2-c2ccc(Br)c(F)c2)c1 [Compound 94, N-(3-((5-(4-bromo-3-fluorophenyl)-2-((1-(oxetan-3-yl)-1H-pyrazol-4-yl)amino)pyrimidin-4-yl)amino)-4-fluorophenyl)acrylamide]	–	40	31	35	144
C=CC(=O)Nc1ccc(F)c(Nc2nc(Nc3cnn(C)c3)ncc2-c2ccc(OC(F)(F)F)c(F)c2)c1 [Compound 14, N-(4-fluoro-3-((5-(3-fluoro-4-(trifluoromethoxy)phenyl)-2-((1-methyl-1H-pyrazol-4-yl)amino)pyrimidin-4-yl)amino)phenyl)acrylamide]	–	26	140	59	107
C=CC(=O)Nc1cccc(Nc2nc(Nc3cnn(C)c3)ncc2-c2ccc(Cl)c(F)c2)c1 [Compound 68, N-(3-((5-(4-chloro-3-fluorophenyl)-2-((1-methyl-1H-pyrazol-4-yl)amino)pyrimidin-4-yl)amino)phenyl)acrylamide]	14	23	60	21	–
C=CC(=O)Nc1cccc(Nc2nc(Nc3cnn(C)c3)ncc2-c2ccc(OC)c(F)c2)c1 [Compound 69, N-(3-((5-(3-fluoro-4-methoxyphenyl)-2-((1-methyl-1H-pyrazol-4-yl)amino)pyrimidin-4-yl)amino)phenyl)acrylamide]	–	14	73	21	27
C=CC(=O)Nc1cccc(Nc2nc(Nc3cnn(C)c3)ncc2-c2ccc(N(C)C)c(F)c2)c1 [Compound 30, N-(3-((5-(4-(dimethylamino)-3-fluorophenyl)-2-((1-methyl-1H-pyrazol-4-yl)amino)pyrimidin-4-yl)amino)phenyl)acrylamide]	35	–	299	40	91
